Experimental data as given in patent publication US11149035B2, “Chemical compounds as H—PGDS inhibitors” (GlaxoSmithKline Intellectual Property Development Limited, priority 2017, dated 2021).

Molecular target: T1, haematopoietic prostaglandin D synthase (H-PGDS) (Homo sapiens, UniProt O60760)
T1 construct: Full length human H-PGDS cDNA (Invitrogen Ultimate ORF IOH13026) was amplified by PCR; 6-His (N); TEV protease cleavage site (N); made in house; host or cells: E. coli BL21 (DE3*)
Test: H-PGDS RapidFire high throughput mass spectrometry assay (conversion of PGH2 to PGD2)
Type: biochemical
Settings: 10 nM H-PGDS, PGH2 formed in situ by COX-2 from arachidonic acid; four parameter curve fit; read-out: Potency Range (mean pIC50) (converted)
Experimental: The H-PGDS RapidFire™ mass spectrometric assay monitors conversion of prostaglandin H2 (PGH2) to prostaglandin D2 (PGD2) by haematopoietic prostaglandin D synthase (H-PGDS). In the assay format described here, the substrate (PGH2) is formed in situ by the action of cyclooxygenase-2 on arachidonic acid. This first step is set up to be fast, and generates a burst of PGH2 at ˜10 μM. The PGH2 is then further converted to PGD2 by the H-PGDS enzyme. […] Plates are then read on the RapidFire™ high throughput solid phase extraction system (Agilent) which incorporates a solid phase extraction step coupled to a triple quadrupole mass spectrometer (AB SCIEX). Relative levels of PGD2 and PGF2α, which acts as a surrogate for substrate, are measured and a percent conversion calculated. Inhibitors are characterised as compounds which lower the conversion of PGH2 to PGD2.
Full length human H-PGDS cDNA (Invitrogen Ultimate ORF IOH13026) was amplified by PCR with the addition of a 5′ 6-His tag and TEV protease cleavage site. The PCR product was digested with NdeI and XhoI and ligated into pET22b+ (Merck Novagen®). Expression was carried out in E. coli strain BL21 (DE3*) using auto-induction Overnight Express™ Instant TB medium (Merck Novagen®) supplemented with 1% glycerol. The culture was first grown at 37° C. and the temperature was reduced to 25° C. when OD600 reached 2.0. Cells were harvested by centrifugation after a further 18 hours. 10 g of E. coli cell pellet was suspended to a total volume of 80 mL in lysis buffer (20 mM Tris-Cl pH 7.5, 300 mM NaCl, 20 mM imidazole, 5 mM β-mercaptoethanol, 10% glycerol). 1 mg/mL protease inhibitors (Protease Inhibitor Cocktail Set III, Merck Calbiochem®) and 1 mg/mL lysozyme were added to the cell suspension. The suspension was then sonicated for 5 min (UltraSonic Processor VCX 750, Cole-Parmer Instrument Co.) with a micro probe (50% amplitude, 10 sec on/off) and then centrifuged at 100,000 g for 90 minutes (at 4° C.). The supernatant was loaded onto a Ni-NTA HiTrap column (5 mL, GE Healthcare, pre-equilibrated in lysis buffer). The column was washed with 10 column volumes of lysis buffer and eluted with lysis buffer containing 500 mM imidazole. The pooled protein peak fractions were concentrated using a 10 kDa centrifugal filter at 3500 g and 4° C. (Amicon Ultra-15 centrifugal filter unit with Ultracel-10 membrane from Millipore). Further purification of the concentrated protein was carried out using gel filtration chromatography on a HiLoad 26/600 Superdex 75 preparative grade column (GE Healthcare Life Sciences) using 50 mM Tris pH 7.5, 50 mM NaCl, 1 mM dithiothreitol, 1 mM MgCl2. Fractions containing the protein were pooled, concentrated as described above, and stored at −80° C.
The full length human COX-2 gene (accession number L15326) was amplified by PCR to generate an EcoRI—HindIII fragment containing an in-frame FLAG tag. This was subcloned into pFastBac 1 (Invitrogen). The COX-2 FLAG plasmid was recombined into the baculovirus genome according to the BAC-to-BAC protocol described by Invitrogen. Transfection into Spodoptera frugiperda (Sf9) insect cells was performed using Cellfectin (Invitrogen), according to the manufacturer's protocol. Super Sf9 cells were cultured in EX420 media (SAFC Biosciences) to a density of approximately 1.5×10^6 cells/mL within a wave bioreactor. Recombinant virus was added at a Multiplicity of Infection (MOI) of 5 and the culture was allowed to continue for 3 days. Cells were harvested using a continuous feed centrifuge run at 2500 g at a rate of approximately 2 L/min with cooling. The resultant cell slurry was re-centrifuged in pots (2500 g, 20 min, 4° C.) and the cell paste was stored at −80° C. 342 g of cell paste was re-suspended to a final volume of 1600 mL in a buffer of 20 mM Tris-Cl pH 7.4, 150 mM NaCl, 0.1 mM EDTA, 1.3% w/v n-octyl-[…] containing 20 Complete EDTA-free Protease Inhibitor Cocktail tablets (Roche Applied Science). […]

T1 sequence (O60760 whole entry): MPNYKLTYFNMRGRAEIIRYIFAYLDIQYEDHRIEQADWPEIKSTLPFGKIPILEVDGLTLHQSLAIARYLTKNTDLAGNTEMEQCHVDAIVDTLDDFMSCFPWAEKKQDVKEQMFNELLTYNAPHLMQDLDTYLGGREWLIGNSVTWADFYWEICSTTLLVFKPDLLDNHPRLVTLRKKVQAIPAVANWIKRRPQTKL

SMILES | IC50 [nM]
O=C(N[C@H]1C[C@](O)(C(F)(F)F)C1)c1cnc2nc(C3CC3)ccc2c1 [Example 53, 7-cyclopropyl-N-((1s,3s)-3-hydroxy-3-(trifluoromethyl)cyclobutyl)-1,8-naphthyridine-3-carboxamide] | 100 to 1000
O=C(N[C@H]1CC[C@H](N2CC(F)(F)C2)CC1)c1cnc2nc(C3CC3)ccc2c1 [Example 54, 7-Cyclopropyl-N-(trans-4-(3,3-difluoroazetidin-1-yl)cyclohexyl)-1,8-naphthyridine-3-carboxamide] | 10 to 79.4
CC(C)(O)[C@H]1CC[C@H](NC(=O)c2cnc3nc(OCC(F)(F)F)ccc3c2)CC1 [Example 55, N-(trans-4-(2-Hydroxypropan-2-yl)cyclohexyl)-7-(2,2,2-trifluoroethoxy)-1,8-naphthyridine-3-carboxamide] | 100 to 1000
CCOc1ccc2cc(C(=O)N[C@H]3CC[C@H](C(C)(C)O)CC3)cnc2n1 [Example 56, 7-Ethoxy-N-(trans-4-(2-hydroxypropan-2-yl)cyclohexyl)-1,8-naphthyridine-3-carboxamide] | 10 to 79.4
C[C@H]1CCN1c1nc2ncc(C(=O)N[C@H]3CC[C@H](C(C)(C)O)CC3)cc2cc1Cl [Example 58, 6-Chloro-N-(trans-4-(2-hydroxypropan-2-yl)cyclohexyl)-7-((S)-2-methylazetidin-1-yl)-1,8-naphthyridine-3-carboxamide] | < 10
C[C@H]1CCN1c1nc2ncc(C(=O)N[C@H]3CC[C@](C)(O)CC3)cc2cc1Cl [Example 59, 6-Chloro-N-((1r,4s)-4-hydroxy-4-methylcyclohexyl)-7-((S)-2-methylazetidin-1-yl)-1,8-naphthyridine-3-carboxamide] | < 10
C[C@H]1CCN1c1nc2ncc(C(=O)N[C@H]3CCNC3=O)cc2cc1Cl [Example 60, 6-Chloro-7-((S)-2-methylazetidin-1-yl)-N—((S)-2-oxopyrrolidin-3-yl)-1,8-naphthyridine-3-carboxamide] | < 10
C[C@H]1CCN1c1nc2ncc(C(=O)NC3CC4(C3)CC(C(C)(C)O)C4)cc2cc1Cl (stereo partly drawn) [Example 61, (S)-6-Chloro-N-(6-(2-hydroxypropan-2-yl)spiro[3.3]heptan-2-yl)-7-(2-methylazetidin-1-yl)-1,8-naphthyridine-3-carboxamide] | < 10
COc1nc2ncc(C(=O)N[C@H]3CC[C@H](C(C)(C)O)CC3)cc2cc1Cl [Example 62, 6-Chloro-N-(trans-4-(2-hydroxypropan-2-yl)cyclohexyl)-7-methoxy-1,8-naphthyridine-3-carboxamide] | < 10
C[C@H]1CCN1c1nc2ncc(C(=O)N[C@H]3C[C@@](C)(O)C3)cc2cc1Cl [Example 63, 6-chloro-N-((1s,3R)-3-hydroxy-3-methylcyclobutyl)-7-((S)-2-methylazetidin-1-yl)-1,8-naphthyridine-3-carboxamide] | < 10
C[C@H]1CCN1c1nc2ncc(C(=O)N[C@H]3C[C@](C)(O)C3)cc2cc1Cl [Example 64, 6-Chloro-N-((1r,3S)-3-hydroxy-3-methylcyclobutyl)-7-((S)-2-methylazetidin-1-yl)-1,8-naphthyridine-3-carboxamide] | < 10
C[C@H]1CCN1c1nc2ncc(C(=O)N[C@H]3C[C@H](C(C)(C)O)C3)cc2cc1Cl [Example 65, 6-Chloro-N-(trans-3-(2-hydroxypropan-2-yl)cyclobutyl)-7-((S)-2-methylazetidin-1-yl)-1,8-naphthyridine-3-carboxamide] | < 10
C[C@H]1CCN1c1nc2ncc(C(=O)N[C@H]3C[C@](O)(C(F)(F)F)C3)cc2cc1Cl [Example 66, 6-Chloro-N-((1s,3R)-3-hydroxy-3-(trifluoromethyl)cyclobutyl)-7-((S)-2-methylazetidin-1-yl)-1,8-naphthyridine-3-carboxamide] | < 10
C[C@@H]1CNC(=O)[C@H]1NC(=O)c1cnc2nc(N3CC[C@@H]3C)c(Cl)cc2c1 [Example 67, 6-Chloro-N-((3S,4R)-4-methyl-2-oxopyrrolidin-3-yl)-7-((S)-2-methylazetidin-1-yl)-1,8-naphthyridine-3-carboxamide] | < 10
O=C(N[C@H]1C[C@@H](N[C@H](CO)C(F)(F)F)C1)c1cnc2nc(C3CC3)ccc2c1 [Example 68, 7-Cyclopropyl-N-(cis-3-(((R)-1,1,1-trifluoro-3-hydroxypropan-2-yl)amino)cyclobutyl)-1,8-naphthyridine-3-carboxamide] | 100 to 1000
O=C(N[C@H]1C[C@H](N[C@H](CO)C(F)(F)F)C1)c1cnc2nc(C3CC3)ccc2c1 [Example 69, 7-Cyclopropyl-N-(trans-3-(((R)-1,1,1-trifluoro-3-hydroxypropan-2-yl)amino)cyclobutyl)-1,8-naphthyridine-3-carboxamide] | 10 to 79.4
CSc1ncc2cc(C(=O)N[C@H]3CC[C@H](C(C)(C)O)CC3)cnc2n1 [Example 70, N-(trans-4-(2-Hydroxypropan-2-yl)cyclohexyl)-2-(methylthio)pyrido[2,3-d]pyrimidine-6-carboxamide] | < 10
O=C(N[C@H]1CCNC1=O)c1cnc2nc(C3CC3)c(Cl)cc2c1 [Example 71, (S)-6-Chloro-7-cyclopropyl-N-(2-oxopyrrolidin-3-yl)-1,8-naphthyridine-3-carboxamide] | < 10
CC(C)(O)[C@H]1CC[C@H](NC(=O)c2cnc3nc(C4CCC4)ccc3c2)CC1 [Example 72, 7-Cyclobutyl-N-(trans-4-(2-hydroxypropan-2-yl)cyclohexyl)-1,8-naphthyridine-3-carboxamide] | 10 to 79.4
CC(C)(O)[C@H]1C[C@H](NC(=O)c2cnc3nc(C4CC4)c(Cl)cc3c2)C1 [Example 73, 6-Chloro-7-cyclopropyl-N-(trans-3-(2-hydroxypropan-2-yl)cyclobutyl)-1,8-naphthyridine-3-carboxamide] | < 10
C[C@]1(O)CC[C@H](NC(=O)c2cnc3nc(C4CC4)c(Cl)cc3c2)CC1 [Example 74, 6-Chloro-7-cyclopropyl-N-((1r,4r)-4-hydroxy-4-methylcyclohexyl)-1,8-naphthyridine-3-carboxamide ethyl acetate solvate] | < 10
C[C@]1(O)C[C@H](NC(=O)c2cnc3nc(C4CC4)c(Cl)cc3c2)C1 [Example 75, 6-Chloro-7-cyclopropyl-N-((1r,3r)-3-hydroxy-3-methylcyclobutyl)-1,8-naphthyridine-3-carboxamide] | 10 to 79.4
C[C@]1(O)C[C@@H](NC(=O)c2cnc3nc(C4CC4)c(Cl)cc3c2)C1 [Example 76, 6-Chloro-7-cyclopropyl-N-((1s,3s)-3-hydroxy-3-methylcyclobutyl)-1,8-naphthyridine-3-carboxamide] | < 10
O=C(N[C@H]1C[C@](O)(C(F)(F)F)C1)c1cnc2nc(C3CC3)c(Cl)cc2c1 [Example 77, 6-Chloro-7-cyclopropyl-N-((1s,3s)-3-hydroxy-3-(trifluoromethyl)cyclobutyl)-1,8-naphthyridine-3-carboxamide] | < 10
C[C@H]1CCN1c1cc2ncc(C(=O)N[C@@H]3C(=O)NCC3(C)C)cc2cn1 [Example 78, N—((S)-4,4-Dimethyl-2-oxopyrrolidin-3-yl)-7-((S)-2-methylazetidin-1-yl)-1,6-naphthyridine-3-carboxamide] | 100 to 1000
